In US20220409620A1, “REDUCING IMMUNOGENICITY TO PEGLOTICASE” (Horizon Pharma Rheumatology LLC, priority 2016, published 2022):

Test system: adult patients with uncontrolled gout
Experiment: Serum uric acid (sUA) levels and sUA responder rate, open-label study of pegloticase with MTX (MIRROR OL)
Type: in vivo, human
Details: mITT Population
Method: The primary objective is to estimate the response rate during Month 6 (Weeks 20, 22, and 24), as measured by the sustained normalization of serum uric acid (SUA) to <6 mg/dL for at least 80% of the time during Month 6 in subjects receiving KXX with MTX.
The primary efficacy outcome endpoint is the sustained normalization of SUA to <6 mg/dL for at least 80% of the time during month 6 (weeks 20, 22, and 24) in subjects receiving KXX with MTX. […] Participants who achieve this endpoint were classified as “responders.” Serum uric acid (SUA) responders may also be defined as participants achieving and maintaining SUA <6 mg/dL for at least 80% of the time during Month 6 (Weeks 20, 22, and 24).
Blood samples may be collected prior to each pegloticase infusion for measurement of SUA levels using the Beckman Coulter AU System Uric Acid procedure. Participants were declared “non-responders” if there were SUA measures >6 mg/dL at 2 consecutive study visits beginning with the week 2 visit. […] This assumption and subsequent discontinuation of pegloticase was consistent with the protocol of large phase III randomized controlled trials and the product label. A formal stopping rule was 2 occasions of SUA levels of greater than 6 mg/dL.
Clinical Chemistry—Blood samples were collected prior to each pegloticase infusion for measurement of SUA levels (primary efficacy parameter) using the Beckman Coulter AU System Uric Acid procedure. In this procedure uric acid is converted to hydrogen peroxide. Hydrogen peroxide reacts with reagent to produce a chromophore which is read bichromatically at 660/800 nm. The amount of dye formed is proportional to the uric acid concentration in the sample.
Serum samples for measurement of SUA levels were collected at the Screening Visit, the Week −4 Visit (prior to the first dose of MTX), and the Week −2 Visit during the MTX Run-in Period; within 48 hours prior to each pegloticase infusion and after the end of each pegloticase infusion prior to discharge from the site during the Pegloticase+IMM Period; at the non-infusion Week 52/End of Study/Early Termination Visits and at the Post Treatment 3 and 6 Month Follow-up Visits. Additional serum samples for SUA levels were collected at optional non-infusion (Frequent Sampling) Visits at Weeks 1 and 7. […] Subjects with SUA level >6 mg/dL at 2 consecutive visits beginning at Week 2 visit discontinued treatment, completed the End of Pegloticase Infusion Visit procedures within 2 weeks and continued the subject visits according to the protocol (without treatment).
Efficacy analyses were performed using the modified intention-to-treat (mITT) population, defined as all enrolled subjects who received ≥1 dose of pegloticase. The proportion of Month 6 responders was summarized, along with a 95% confidence interval for the proportion. The proportion of Month 3 and overall (Months 3 and 6 combined) responders was analyzed similarly.
A subject was declared a non-responder if the subject had SUA level >6 mg/dL at 2 consecutive study visits beginning with the Week 2 Visit. In addition, a subject who withdraws from study treatment for any reason after the first dose of pegloticase in the KXX+MTX Period and prior to Month 6 (for the primary endpoint) or Month 3 (for the secondary endpoint) was considered a non-responder if SUA values were not collected at the planned time points.
Patients were administered oral MTX (15 mg/week) and folate (1 mg/day) 4 weeks prior to the first pegloticase infusion (Day 1) and throughout the pegloticase treatment period. Blood was drawn prior to each infusion to measure sUA level, monitor clinical parameters, and examine for ADA development. All patients followed typical IR prophylaxis protocols (fexofenadine one day before and the morning of each infusion and acetaminophen and IV corticosteroid the morning of each infusion).

With pegloticase the “Serum Uric Acid, Observed, Mean (SD)” value (Week 7) was 0.30 (0.000) mg/dL, the “Serum Uric Acid, Observed, Median” value (Week 7) was 0.30 mg/dL and the “sUA <6 mg/dL, n (%)” value (Week 7) was 4 (100%). The “Serum Uric Acid, Change from Baseline, Mean (SD)” value (“Serum Uric Acid, Change … (SD)” below) (Week 8 - Post-Infusion) was −8.98 (2.679) mg/dL, the “Serum Uric Acid, Change from Baseline, Median” value (Week 8 - Post-Infusion) was -8.95 mg/dL and the “Serum Uric Acid, Observed, Mean (SD)” value (Week 8 - Post-Infusion) was 0.30 (0.000) mg/dL. For the same substance, the “Serum Uric Acid, Observed, Median” value (Week 8 - Post-Infusion) was 0.30 mg/dL, the “sUA <6 mg/dL, n (%)” value (Week 8 - Post-Infusion) was 12 (100%) and the “Serum Uric Acid, Change … (SD)” value (Week 8 - Pre-Infusion) was −8.20 (3.624) mg/dL. For the same substance, the “Serum Uric Acid, Change from Baseline, Median” value (Week 8 - Pre-Infusion) was -8.33 mg/dL, the “Serum Uric Acid, Observed, Mean (SD)” value (Week 8 - Pre-Infusion) was 1.08 (2.472) mg/dL and the “Serum Uric Acid, Observed, Median” value (Week 8 - Pre-Infusion) was 0.30 mg/dL. The “sUA <6 mg/dL, n (%)” value (Week 8 - Pre-Infusion) was 11 (91.7%), the “Serum Uric Acid, Change … (SD)” value (Week 10 - Post-Infusion) was −8.97 (2.810) mg/dL and the “Serum Uric Acid, Change from Baseline, Median” value (Week 10 - Post-Infusion) was -8.80 mg/dL. For the same substance, the “Serum Uric Acid, Observed, Mean (SD)” value (Week 10 - Post-Infusion) was 0.30 (0.000) mg/dL, the “Serum Uric Acid, Observed, Median” value (Week 10 - Post-Infusion) was 0.30 mg/dL and the “sUA <6 mg/dL, n (%)” value (Week 10 - Post-Infusion) was 11 (100%). The “Serum Uric Acid, Change … (SD)” value (Week 10 - Pre-Infusion) was −8.33 (3.476) mg/dL, the “Serum Uric Acid, Change from Baseline, Median” value (Week 10 - Pre-Infusion) was -8.70 mg/dL and the “Serum Uric Acid, Observed, Mean (SD)” value (Week 10 - Pre-Infusion) was 0.95 (2.252) mg/dL. For the same substance, the “Serum Uric Acid, Observed, Median” value (Week 10 - Pre-Infusion) was 0.30 mg/dL, the “sUA <6 mg/dL, n (%)” value (Week 10 - Pre-Infusion) was 11 (91.7%) and the “Serum Uric Acid, Change … (SD)” value (Week 12 - Post-Infusion) was −9.13 (2.911) mg/dL. The “Serum Uric Acid, Change from Baseline, Median” value (Week 12 - Post-Infusion) was -9.05 mg/dL, the “Serum Uric Acid, Observed, Mean (SD)” value (Week 12 - Post-Infusion) was 0.30 (0.000) mg/dL and the “Serum Uric Acid, Observed, Median” value (Week 12 - Post-Infusion) was 0.30 mg/dL. The “sUA <6 mg/dL, n (%)” value (Week 12 - Post-Infusion) was 10 (100%), the “Serum Uric Acid, Change … (SD)” value (Week 12 - Pre-Infusion) was −8.98 (2.806) mg/dL and the “Serum Uric Acid, Change from Baseline, Median” value (Week 12 - Pre-Infusion) was -8.80 mg/dL. For the same substance, the “Serum Uric Acid, Observed, Mean (SD)” value (Week 12 - Pre-Infusion) was 0.30 (0.015) mg/dL, the “Serum Uric Acid, Observed, Median” value (Week 12 - Pre-Infusion) was 0.30 mg/dL and the “sUA <6 mg/dL, n (%)” value (Week 12 - Pre-Infusion) was 11 (100%). For the same substance, the “Serum Uric Acid, Change … (SD)” value (Week 14 - Post-Infusion) was −9.01 (2.959) mg/dL, the “Serum Uric Acid, Change from Baseline, Median” value (Week 14 - Post-Infusion) was -9.05 mg/dL and the “Serum Uric Acid, Observed, Mean (SD)” value (Week 14 - Post-Infusion) was 0.30 (0.000) mg/dL. For the same substance, the “Serum Uric Acid, Observed, Median” value (Week 14 - Post-Infusion) was 0.30 mg/dL, the “sUA <6 mg/dL, n (%)” value (Week 14 - Post-Infusion) was 10 (100%) and the “Serum Uric Acid, Change … (SD)” value (Week 14 - Pre-Infusion) was −8.97 (2.810) mg/dL. The “Serum Uric Acid, Change from Baseline, Median” value (Week 14 - Pre-Infusion) was -8.80 mg/dL, the “Serum Uric Acid, Observed, Mean (SD)” value (Week 14 - Pre-Infusion) was 0.30 (0.000) mg/dL and the “Serum Uric Acid, Observed, Median” value (Week 14 - Pre-Infusion) was 0.30 mg/dL. The “sUA <6 mg/dL, n (%)” value (Week 14 - Pre-Infusion) was 11 (100%), the “Serum Uric Acid, Change … (SD)” value (Week 16 - Post-Infusion) was −8.97 (2.810) mg/dL and the “Serum Uric Acid, Change from Baseline, Median” value (Week 16 - Post-Infusion) was -8.80 mg/dL. For the same substance, the “Serum Uric Acid, Observed, Mean (SD)” value (Week 16 - Post-Infusion) was 0.30 (0.000) mg/dL, the “Serum Uric Acid, Observed, Median” value (Week 16 - Post-Infusion) was 0.30 mg/dL and the “sUA <6 mg/dL, n (%)” value (Week 16 - Post-Infusion) was 11 (100%). The “Serum Uric Acid, Change … (SD)” value (Week 16 - Pre-Infusion) was −8.97 (2.810) mg/dL, the “Serum Uric Acid, Change from Baseline, Median” value (Week 16 - Pre-Infusion) was -8.80 mg/dL and the “Serum Uric Acid, Observed, Mean (SD)” value (Week 16 - Pre-Infusion) was 0.30 (0.000) mg/dL. The “Serum Uric Acid, Observed, Median” value (Week 16 - Pre-Infusion) was 0.30 mg/dL, the “sUA <6 mg/dL, n (%)” value (Week 16 - Pre-Infusion) was 11 (100%) and the “Serum Uric Acid, Change … (SD)” value (Week 18 - Post-Infusion) was −8.97 (2.810) mg/dL. The “Serum Uric Acid, Change from Baseline, Median” value (Week 18 - Post-Infusion) was -8.80 mg/dL, the “Serum Uric Acid, Observed, Mean (SD)” value (Week 18 - Post-Infusion) was 0.30 (0.000) mg/dL and the “Serum Uric Acid, Observed, Median” value (Week 18 - Post-Infusion) was 0.30 mg/dL. The “sUA <6 mg/dL, n (%)” value (Week 18 - Post-Infusion) was 11 (100%), the “Serum Uric Acid, Change … (SD)” value (Week 18 - Pre-Infusion) was −8.97 (2.810) mg/dL and the “Serum Uric Acid, Change from Baseline, Median” value (Week 18 - Pre-Infusion) was -8.80 mg/dL. The “Serum Uric Acid, Observed, Mean (SD)” value (Week 18 - Pre-Infusion) was 0.30 (0.000) mg/dL, the “Serum Uric Acid, Observed, Median” value (Week 18 - Pre-Infusion) was 0.30 mg/dL and the “sUA <6 mg/dL, n (%)” value (Week 18 - Pre-Infusion) was 11 (100%).
